{"source": "patent US20240252586A1", "about": "“ENGINEERED ANTIMICROBIAL PEPTIDES AND USAGE THEREOF” (priority 2021, published 2024)", "key": {"S. aureus NRS 384": {"system": "S. aureus NRS 384", "description": "(§1) Base test media for the TK assay were phosphate-buffered saline (PBS), water, and cation-adjusted Mueller-Hinton broth (CAMHB), all adjusted to pH 7.4 with sodium hydroxide (NaOH) or hydrochloric acid (HCl) and then filter-sterilized.\n(§2) Double strength (2×) Dey/Engley neutralizing broth (D/E) was used as a neutralizer for dilution and plating during determination of CFU/mL at each TK assay time point. Track plating was conducted on TSAB for Staphylococcus aureus NRS382 and on TSA without sheep's blood for all other organisms. TSA was used for spread plate enumeration of CFU/mL during a pilot study testing toxicity of D/E to bacteria and neutralization of SEQ ID NO: 1 in D/E.\n(§3) Drug stocks of 5120 μg/mL in water at pH 5 were diluted in PBS pH-7.4 to 100× the final concentrations desired for each TK assay and frozen at −20° C. until use.\n(§4) The TK test panel was prepared in a 96-well deep well plate, where 890 μL of each test media and 10 μL of 100× drug stocks were added to the appropriate wells. A growth control containing no drug was included, where 10 μl of PBS (pH 7.4) was added in place of drug.\n(§5) A cell suspension was prepared from growth of a freshly streaked plate equivalent to the turbidity of a 0.5 McFarland standard in PBS at (pH 7.4). Deep-well test panels prepared as described above were inoculated with 100 μL of the 0.5 McFarland cell suspension, targeting a final inoculum of approximately 1 to 2×10^7 CFU/mL. During the TK assay, the 96 deep-well plate was left on the bench top at room temperature.\n(§6) Aliquots of 100 μL were removed from the test panel immediately (0 minutes), and at 2.5, 5, 10, 15, and 30 minutes, and mixed with 100 μL 2×D/E to neutralize the rapid bactericidal activity of SEQ ID NO: 1. Cells were then serially diluted ten-fold in 2× Dey/Engley broth four times yielding a dilution series ranging from 2 to 2×10-4. Ten microliters from each step of the dilution series were track-plated in duplicate on TSA to enumerate viable counts (CFU/mL). Plates were then incubated at 35° C. overnight.\n(§7) The resulting colonies were counted, and viable counts (CFU/mL) were determined from the average count of the duplicate plates. The limit of detection (LOD) for the assay was 100 CFU/mL. The LOD reflects the average CFU/ml if just one colony grew from the least diluted sample (DF=2) between the two track plate replicates, where 10 μL had been plated. Log-transformed viable counts (log10 CFU/mL) were then plotted vs. time."}, "E. Coli CDC 0451": {"system": "E. Coli CDC 0451", "details": "1× MIC, PBS, without sodium bicarbonate", "description": "as §1, §2, §3, §4, §5, §6, §7"}, "S. epidermidis MMX 8655": {"system": "S. epidermidis MMX 8655", "details": "by […]; 1× MIC; PBS and H2O", "description": "as §1, §2, §3, §4, §5, §6, §7"}, "5 test isolates": {"system": "5 test isolates", "details": "PBS and H2O, 1× and 0.5× MIC, all evaluated organisms", "description": "as §1, §2, §3, §4, §5, §6, §7"}, "[1]": {"system": "P. aeruginosa CDC 0515 biofilm", "experiment": "Microtiter plate biofilm studies (previous), resazurin viability", "from_the_text": "In those previous studies, mature biofilms were formed on polystyrene microtiter plates through growth in CAMHB, followed by exposure to SEQ ID NO: 1 and resazurin addition to measure cell viability."}, "Enterobacterales": {"system": "Enterobacterales", "experiment": "Broth microdilution MIC, PJI isolates (Example 1)", "assay_type": "cell-based", "details": "RPMI; N = 22", "description": "(§8) Imipenem, levofloxacin, tigecycline, linezolid, vancomycin, oxacillin, ceftazidime, colistin, and amikacin were tested as comparators. Testing was conducted in accordance with guidelines from the Clinical and Laboratory Standards Institute (CLSI; M7 and M100). Test organisms comprised reference strains from the American Type Culture Collection, the Centers for Disease Control Antibiotic Reference Bank and clinical isolates from the Micromyx repository."}, "S. epidermidis": {"system": "S. epidermidis", "experiment": "Broth microdilution MIC, PJI isolates (Example 1)", "assay_type": "cell-based, Staphylococcus epidermidis", "details": "RPMI", "description": "as §8"}}, "note": "Several values for one entry are separate records, joined by “and”; a condition that tells them apart may be missing. Equal entries are not always repeated. Where two headings read alike, the source gives them in different places. Where no end group is shown, it is not given here.", "data": [{"sequence": "RRWVRRVRRVWRRVVRVVRRWVRR [SEQ ID NO: 1]", "values": [{"measurement": "log-kill", "setting": "S. aureus NRS 384; 0 min, 0.5 and 1× MIC in H2O, absence of sodium bicarbonate", "result": "≥ 3", "unit": "log"}, {"measurement": "log-kill", "setting": "S. aureus NRS 384; after […], 1× MIC in PBS +/- sodium bicarbonate", "result": "~3", "unit": "log"}, {"measurement": "log-kill", "setting": "S. aureus NRS 384; by […], 0.5 and 1× MIC in H2O, presence of sodium bicarbonate", "result": "≥ 3", "unit": "log"}, {"measurement": "killing (log)", "setting": "E. Coli CDC 0451", "result": "> 3"}, {"measurement": "log-kill", "setting": "S. epidermidis MMX 8655", "result": "~3", "unit": "log"}, {"measurement": "log killing", "setting": "5 test isolates", "result": "Greater than 1 log"}, {"measurement": "decrease in cell viability (resazurin reduction)", "setting": "[1]; 500 μg/mL, 15 minutes", "result": "ca. 70%"}, {"measurement": "MIC", "setting": "[1]; two previous microtiter plate biofilm studies", "result": "8 µg/mL and 16 µg/mL"}, {"measurement": "MIC50", "setting": "Enterobacterales", "result": 0.5, "unit": "µg/mL"}, {"measurement": "MIC90", "setting": "Enterobacterales", "result": 0.5, "unit": "µg/mL"}, {"measurement": "MIC50", "setting": "S. epidermidis; All S. epidermidis (N = 104)", "result": 0.12, "unit": "µg/mL"}, {"measurement": "MIC90", "setting": "S. epidermidis; All S. epidermidis (N = 104)", "result": 0.12, "unit": "µg/mL"}, {"measurement": "MIC50", "setting": "S. epidermidis; MRSE (N = 58)", "result": 0.12, "unit": "µg/mL"}, {"measurement": "MIC90", "setting": "S. epidermidis; MRSE (N = 58)", "result": 0.12, "unit": "µg/mL"}, {"measurement": "MIC50", "setting": "S. epidermidis; MSSE (N = 46)", "result": 0.12, "unit": "µg/mL"}, {"measurement": "MIC90", "setting": "S. epidermidis; MSSE (N = 46)", "result": 0.12, "unit": "µg/mL"}]}]}
